Patent US20260217767A1, “NOVEL A4B7 THIOETHER PEPTIDE DIMER ANTAGONISTS” (Protagonist Therapeutics, Inc., priority 2014, published 2026)
Where a SMILES comes first, the peptide text is derived from it.

What was measured:
[1] = system: CD4+/CD45RO+ memory T cells; experiment: PBMC Memory T Cell Adhesion Assay; type: cell-based, human
Procedure: PBMC Memory T Cell Adhesion Assay
Fresh CD4+/CD45RO+ memory T cells were isolated from human peripheral blood mononuclear cell (PBMC) donors by Aragen Bioscience Inc. (Morgan Hill, CA). The assay plate was prepared using IgG Fc capture antibody (donkey anti human) immobilized at 500 ng/well in 50 mM sodium bicarbonate buffer, pH 9.5, ON, 4 C onto a Greiner Fluotrac plate (100 ul per well). The plate was rinsed two time with Blocking Buffer (25 mM Tris HCl, pH7.5, 150 mM NaCl, 1.5% BSA, 0.05% Tween), and blocked with Blocking Buffer for 2 hours at 37 C or 5 hours at RT using 200 ul per well. The Blocking Buffer was removed and either MAdCAM-1 or VCAM-1 at 400 ng/well in Blocking Buffer was added and the plate incubated overnight at 4 C (100 ul per well). The plate was washed two times with Blocking Buffer, and rinsed once with 200 ul Binding Media (DMEM phenol red free, 10 mM HEPES, 1×Na pyruvate, 1× Glutamine, and supplemented with 1 mM MnC12 prior to use). To prepare cells, approximately 25 million CD4+/CD45RO+ memory T cells were counted by trypan blue exclusion using a haemocytometer to determine viability and cell count. The cells were transferred to a 50 ml conical tube, and centrifuged at 1200 rpm for 10 minute. The media was aspirated and the cell pellet resuspended in 15 ml Binding Media. The cells were centrifuged again and resuspended in the appropriate amount of Binding Media to be used for assays (50 ul of cells per well at 2× the final density). To each well, and equal volume (50 ul) of test compound was added and the plate was incubated for 1.5 hours at 37 C, 5% CO2. Each well was rinsed 3× with 150 ul per well of Binding Media. […] The plate was incubated at 37 C, 5% CO2, for 45 minutes. The plate was protected from light by using black adhesive seals. Fluorescence intensity was measured using a Molecular Devices Gemini EM Fluorescent Plate Reader (Ex 485/Em530, Bottom Read, Reading Sensitivity=20). IC50 curves are generated using Graph Pad Prism and the curves analyzed using analyzed using a non-linear regression (four parameters) algorithm. The log (concentration) versus RFU (Ex485/Em530) was plotted to determine IC50 values.

RPMI 8866 cells = molecular target: T1, RPMI 8866 cells (Homo sapiens, UniProt P13612+P26010); experiment: α4β7-MAdCAM Cell Adhesion Assay; type: cell-based; conditions: thioether peptide dimers, Table 7; read-out: Cell-Adhesion A4B7
T1 sequence (P13612 34-1032): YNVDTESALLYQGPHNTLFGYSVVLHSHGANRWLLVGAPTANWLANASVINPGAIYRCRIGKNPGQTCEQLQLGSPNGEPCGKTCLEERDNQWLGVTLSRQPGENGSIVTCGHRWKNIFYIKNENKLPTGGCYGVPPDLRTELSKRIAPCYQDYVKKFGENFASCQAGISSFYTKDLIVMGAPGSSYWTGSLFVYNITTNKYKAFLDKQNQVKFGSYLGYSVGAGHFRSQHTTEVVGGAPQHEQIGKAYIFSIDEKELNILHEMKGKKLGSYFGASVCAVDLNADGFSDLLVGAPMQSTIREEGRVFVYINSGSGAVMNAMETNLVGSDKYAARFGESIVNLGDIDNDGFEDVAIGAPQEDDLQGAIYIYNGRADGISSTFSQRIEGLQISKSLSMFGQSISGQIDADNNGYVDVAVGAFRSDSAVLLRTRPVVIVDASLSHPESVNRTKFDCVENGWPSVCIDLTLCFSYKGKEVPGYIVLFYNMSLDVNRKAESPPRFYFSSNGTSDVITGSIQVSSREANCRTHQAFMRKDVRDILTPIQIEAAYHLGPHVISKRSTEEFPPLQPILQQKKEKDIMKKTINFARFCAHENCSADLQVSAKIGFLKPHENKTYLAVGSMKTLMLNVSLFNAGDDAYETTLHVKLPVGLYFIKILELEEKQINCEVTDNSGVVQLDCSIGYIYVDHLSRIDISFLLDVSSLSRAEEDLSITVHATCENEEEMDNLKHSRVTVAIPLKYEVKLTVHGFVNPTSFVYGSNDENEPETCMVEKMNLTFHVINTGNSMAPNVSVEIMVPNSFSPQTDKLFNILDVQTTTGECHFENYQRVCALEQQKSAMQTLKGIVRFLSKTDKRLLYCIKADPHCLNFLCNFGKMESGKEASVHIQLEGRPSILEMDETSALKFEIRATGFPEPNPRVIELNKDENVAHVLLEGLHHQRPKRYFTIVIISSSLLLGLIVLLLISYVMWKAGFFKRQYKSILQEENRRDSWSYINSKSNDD
T1 sequence (P26010 20-798): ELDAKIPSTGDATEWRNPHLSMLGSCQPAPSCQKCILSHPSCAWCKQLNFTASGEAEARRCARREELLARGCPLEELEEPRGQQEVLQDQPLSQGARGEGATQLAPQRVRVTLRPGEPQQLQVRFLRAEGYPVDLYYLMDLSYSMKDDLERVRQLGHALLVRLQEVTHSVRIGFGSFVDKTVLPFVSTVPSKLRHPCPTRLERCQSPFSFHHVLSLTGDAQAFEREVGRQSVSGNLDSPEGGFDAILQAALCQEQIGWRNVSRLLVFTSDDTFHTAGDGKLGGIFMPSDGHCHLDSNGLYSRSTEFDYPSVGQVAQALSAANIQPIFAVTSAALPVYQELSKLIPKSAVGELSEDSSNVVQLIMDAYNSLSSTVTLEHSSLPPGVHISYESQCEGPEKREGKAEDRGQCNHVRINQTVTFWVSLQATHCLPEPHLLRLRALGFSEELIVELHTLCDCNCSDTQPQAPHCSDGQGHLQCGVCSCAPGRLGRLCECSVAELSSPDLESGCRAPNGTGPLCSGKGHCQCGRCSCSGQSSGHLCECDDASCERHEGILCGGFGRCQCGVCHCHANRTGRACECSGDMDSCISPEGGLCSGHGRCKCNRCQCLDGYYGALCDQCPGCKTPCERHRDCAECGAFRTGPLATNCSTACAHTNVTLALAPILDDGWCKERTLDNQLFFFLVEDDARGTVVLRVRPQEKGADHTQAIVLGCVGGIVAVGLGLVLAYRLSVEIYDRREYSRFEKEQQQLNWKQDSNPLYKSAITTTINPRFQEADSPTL
How it was run: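 RPMI 8866 cells (200,000/well) in DMEM with 1 mM MnCl2 and 0.1% BSA were allowed to adhere 30-45 min at 37° C to plates coated with rh MAdCAM-1/Fc (200 ng/well) in presence of serially diluted peptide. After washing, bound cells quantified by MTT, absorbance 570 nm, cell-free background subtracted.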

[2] = Simulated Intestinal Fluid (SIF) Stability Assay; type: in vitro ADME; conditions: simulated gi fluid, porcine pancreatin
How it was run: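 Peptide at 22 μM final was incubated at 37° C in blank FaSSIF pH 6.5 with 1% porcine pancreatin. Timed samples were quenched in acetonitrile/methanol/formic acid with internal standard and analysed by LC-MS/MS. Half-lives came from first-order exponential fits of percent remaining.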

[3] = Dithiothreitol (DTT) Redox Stability Assay; type: physicochemical; conditions: 0.5 mM DTT, room temperature; control peptide monomers, Table 8
Procedure: Studies were carried out under redox conditions to evaluate intestinal stability of the peptide molecules of the instant invention.
Dithiothreitol (DTT) Redox Stability Assay
The DTT stability assay was prepared by adding 5 μl of a 10 mM peptide stock solution in DMSO to 1 ml of 100 mM Tris-Cl, pH 7.5 (final peptide concentration is 50 μM). At time 0 min, 5 μl of a freshly thawed 100 mM DTT solution was added such that the final DTT concentration is 0.5 mM. The reactions were incubated at room temperature. At different time points up to 120 minutes, 50 μl aliquots were removed and the reaction was quenched by adding 10 ul of 5M acetic acid. To measure disappearance of the parent peptide, the quenched samples (30 μl) were analyzed by reverse phase HPLC and UV absorbance at 220 nm. Half-lives were calculated by fitting to a first-order exponential decay equation using Excel.

[4] = Simulated Gastric Fluid (SGF) Stability Assay; type: in vitro ADME; conditions: simulated gi fluid; porcine pepsin, pH 2, 37° C.; dimers, Table 7
Procedure: Simulated Gastric Fluid (SGF) Stability Assays
Studies were carried out in simulated gastric fluid (SGF) to evaluate intestinal stability of the peptide molecules of the instant invention. SGF was prepared by adding 20 mg NaCl, 32 mg porcine pepsin (MP Biochemicals, catalog 02102599), and 70 μl HCl to 10 ml water (final pH=2). Aliquots of SGF (0.5 ml each) were pre-warmed at 37° C. To start the reaction, 1 μl of peptide stock solution (10 mM in DMSO) was added to 0.5 ml SGF and thoroughly mixed such that the final peptide concentration was 20 μM. The reactions were incubated at 37° C. with gentle shaking. At each time point (0, 15, 30, 60 min) 50 μl aliquots were removed and added to 200 μl acetonitrile containing 0.1% formic acid to quench the reaction. Samples are stored at 4° C. until the end of the experiment and centrifuged at 10,000 rpm for 5 minutes. Aliquots of the supernatant were removed, diluted 1:1 into distilled water containing internal standard, and analyzed by LCMS/MS. Percent remaining at each timepoint was calculated based on the peak area response ratio of test to compound to internal standard. Time 0 was set to 100%, and all later timepoints were calculated relative to time 0. Half-lives were calculated by fitting to a first-order exponential decay equation using GraphPad.

[5] = thioether peptide dimers, Table 7
[6] = control peptide monomers, Table 8

half-life [2, 6]	Redox stability (DTT) [3]	SMILES	IC50 [1, 5]	other results
		CC(C)C[C@@H]1NC(=O)[C@H]([C@@H](C)O)NC(=O)[C@H](CC(=O)O)NC(=O)[C@H](CO)NC(=O)[C@H](CCCNC(=N)N)N(C)C(=O)c2ccccc2CSC(C)(C)[C@@H](C(=O)N[C@@H](Cc2ccc(C(C)(C)C)cc2)C(=O)N[C@@H](CCC(=O)O)CC(=O)N[C@H](CCCCN)C(N)=O)NC1=O [compound 222]	< 25 nM	IC50 (RPMI 8866 cells): < 25 nM
< 0.0167 h	~3 min	CC(=O)N[C@H]1CSSC[C@@H](C(=O)NCC(=O)N[C@@H](CCC(=O)O)C(N)=O)NC(=O)[C@H](CC(C)C)NC(=O)[C@H]([C@@H](C)O)NC(=O)[C@H](CC(=O)O)NC(=O)[C@H](CO)NC(=O)[C@H](CCCNC(=N)N)NC1=O [compound 385] (HELM PEPTIDE1{[ac].C.R.S.D.T.L.C.G.E.[am]}$PEPTIDE1,PEPTIDE1,2:R3-8:R3$$$V2.0; bridges inferred)		
		CC(C)C[C@@H]1NC(=O)[C@H]([C@@H](C)O)NC(=O)[C@H](CC(=O)O)NC(=O)[C@H](CO)NC(=O)[C@H](CCCNC(=N)N)N(C)C(=O)c2ccccc2CSC(C)(C)[C@@H](C(=O)N[C@@H](Cc2c[nH]c3ccccc23)C(=O)N[C@H](CCC(=O)O)C(N)=O)NC1=O [compound 98] (HELM PEPTIDE1{[meR].S.D.T.L.[Pen].W.[dE].[am]}|CHEM1{[O=C(c1ccccc1C[*:2])[*:1]]}$PEPTIDE1,CHEM1,1:R1-1:R1|PEPTIDE1,CHEM1,6:R3-1:R2$$$V2.0)		IC50 ([1]; thioether monomer peptides, Table 6): 100 to 1000 nM
< 0.0167 h	~3 min	CC(=O)N[C@H]1CSSC[C@@H](C(N)=O)NC(=O)[C@H](CC(C)C)NC(=O)[C@H]([C@@H](C)O)NC(=O)[C@H](CC(=O)O)NC(=O)[C@H](CO)NC(=O)[C@H](CCCNC(=N)N)NC1=O [compound 386] (HELM PEPTIDE1{[ac].C.R.S.D.T.L.C.[am]}$PEPTIDE1,PEPTIDE1,2:R3-8:R3$$$V2.0; bridges inferred)		
		CC(C)C[C@@H]1NC(=O)[C@H]([C@@H](C)O)NC(=O)[C@H](CC(=O)O)NC(=O)[C@H](CO)NC(=O)[C@H](CCCNC(=N)N)N(C)C(=O)c2ccccc2CSC(C)(C)[C@@H](C(=O)N[C@@H](Cc2ccccc2)C(=O)N[C@H](CCC(=O)O)C(=O)N[C@H](CCCCN)C(N)=O)NC1=O [compound 155] (HELM PEPTIDE1{[meR].S.D.T.L.[Pen].F.[dE].[dK].[am]}|CHEM1{[O=C(c1ccccc1C[*:2])[*:1]]}$PEPTIDE1,CHEM1,1:R1-1:R1|PEPTIDE1,CHEM1,6:R3-1:R2$$$V2.0)	25 to 100 nM	half-life [4]: > 3 h; half-life ([2]; 37° C., dimers, Table 7): > 3 h
